Laboratory results reported in patent US20260158002A1, “APPLICATION OF COMPOSITION CONTAINING EDARAVONE AND DEXBORNEOL IN IMPROVING OR TREATING COGNITIVE IMPAIRMENT” (NEURODAWN PHARMACEUTICAL CO., LTD., priority 2021, published 2026).

What was measured:
[1] = test system: tau P301L transgenic mouse model; settings: tau P301L mice aged 9 to 10 months and 21 months; oral with drinking water 24 mg/kg/day for 3 consecutive months; cited from earlier work
5×FAD transgenic mice [2] = test: AD pathology examination (immunohistochemical test) in 5×FAD transgenic mice; type: in vivo, mouse; settings: 5×FAD mice; edaravone 6 mg/kg or composition 7.5 mg/kg i.p. once daily for 16 weeks
Method: (§1) In the experiment, the animals were divided into 4 groups. Administration was performed on the mice in each group from 8 weeks of age. After 16 weeks of continuous daily administration, water maze and Y maze behavioral tests were performed. After the behavioral tests were completed, the animals were sacrificed, and brain slice electrophysiology and AD pathology within the brain were tested, including the test of Aβ plaques, biomarkers such as GFAP and Iba-1, p-Tau, etc.
After the behavioral test of animals was completed, the mice were subjected to cardiac perfusion followed by brain removal, and the brain was fixed in 4% paraformaldehyde for 24 h, dehydrated with 30% sucrose, snap-frozen and embedded with an embedding medium, and sliced (thickness […]). The brain slices having the hippocampal region were selected, washed with PBS for 5 min×3 times, permeabilized with 0.2% Triton, washed with PBS for 7 min×3 times, and blocked with Blocking buffer (2.5% BSA, 0.3% Triton) for 1 h. The brain slices were placed in a primary antibody overnight at 4° C. On the second day, the brain slices in the primary antibody were taken out, washed with PBS for 5 min×3 times, placed in a second antibody, and incubated for 1 h at room temperature in the dark. The brain slices were taken out and washed with PBS for 5 min×3 times. An anti-fluorescence quencher containing DAPI was added dropwise, and the slices were mounted.
Data were expressed as Mean±SEM. Statistical analysis between groups was performed using Prism software (GraphPad, USA): One-way or Two-way ANOVA was used for comparison of two or more groups, and then Fisher's LSD test was selected for analysis. P<0.05 indicated significant difference. ##p<0.01, ###p<0.001, ####p<0.0001, comparison with WT group; *p<0.05, **p<0.01, […], ****p<0.0001, comparison with model group; & p<0.05, &&p<0.01, &&&&p<0.0001, comparison between two groups indicated.

[3] = test system: rat model of scopolamine-induced dementia; settings: oral 15 mg/kg/day for 7 consecutive days; cited from earlier work
SH-SY5Y-APP695 = settings: 0.3 to 3 μM; cited from earlier work
[4] = test system: mouse model of AlCl3/D-galactose-induced cognitive impairment; settings: intraperitoneal for 15 consecutive days; cited from earlier work
5×FAD transgenic mice [5] = test: Y maze test in 5×FAD transgenic mice; type: in vivo, mouse; settings: 5×FAD mice; edaravone 6 mg/kg or composition 7.5 mg/kg i.p. once daily for 16 weeks
Method: as §1
5×FAD: edaravone group: ten 5×FAD mice were given edaravone ( ? ®) 6 mg/kg via i.p. at a dose of 10.0 mL/kg once daily.
5×FAD: composition group: ten 5×FAD mice were given 7.5 mg/kg edaravone and dexborneol concentrated solution for injection ( ? ®) (edaravone:dexborneol=4:1, containing 6 mg/kg edaravone and 1.5 mg/kg dexborneol) at a dose of 10.0 ml/kg once daily. […]
Testing: After 1 h of training, the baffle was removed, the channel of the Y maze was wiped with alcohol to remove the odor of the previous mouse, the mouse to be tested was placed in the same position for 5 min and video recording was performed, and the number of times the mouse entered the newly opened arm as a percentage of the total number of times it entered the three arms was recorded in the test.
Data were expressed as Mean±SEM. […]

Aβ1-42 = Aβ1-42 (Homo sapiens, UniProt P05067); settings: in vitro; concentration range of 0.156 to 5 μM; cited from earlier work
Sequence of Aβ1-42 (P05067 672-713 limits assumed): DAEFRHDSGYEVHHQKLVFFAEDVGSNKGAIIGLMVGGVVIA

CC1=NN(c2ccccc2)C(=O)C1 [edaravone, 3-methyl-1-phenyl-2-pyrazolin-5-one]
cognitive function in water maze test and novel object recognition test [1]: can significantly improve the cognitive function of the animals in water maze test and novel object recognition test
astrogliosis within the brain, vs solvent control group (5×FAD transgenic mice [2]): could significantly decrease
hippocampal tau protein hyperphosphorylation, vs solvent control group (5×FAD transgenic mice [2]): could significantly decrease
microgliosis within the brain, vs solvent control group (5×FAD transgenic mice [2]): could significantly decrease
β-amyloid plaques within the brain, vs solvent control group (5×FAD transgenic mice [2]): could significantly decrease
scopolamine-induced spatial learning and long-term memory impairments [3]: can improve scopolamine-induced spatial learning and long-term memory impairments
BACE1 expression, cleavage of APP and Aβ production (SH-SY5Y-APP695): capable of reducing BACE1 expression, cleavage of APP and Aβ production in a concentration-dependent manner
GSK-3β activation and tau phosphorylation (SH-SY5Y-APP695): inhibiting GSK-3β activation and reducing tau phosphorylation
cognitive function in water maze test and step-down test [4]: significantly improves the cognitive function as tested by water maze test and step-down test
number of times the mouse entered the newly opened arm in Y maze, vs solvent control (5×FAD transgenic mice [5]): could significantly increase the number of times the mouse entered the newly opened arm
aggregation of Aβ1-42 monomer as Aβ fibrils and disaggregation of Aβ fibrils (Aβ1-42): capable of inhibiting the aggregation of Aβ1-42 monomer as Aβ fibrils and disaggregating Aβ fibrils in a concentration-dependent manner
